Experimental data taken from patent US20230322846A9, “NEUROACTIVE STEROIDS AND THEIR METHODS OF USE” (SAGE THERAPEUTICS, INC., priority 2018, published 2023).

Key:
[1] = molecular target: human GABAA receptors composed of the α4β3δ subunits (Homo sapiens (Human), UniProt O14764+P28472+P48169); assay: α4β3δ SyncroPatch automated patch clamp assay; format: cell-based; conditions: for EC50: HEK cells, potentiation of submaximal GABA current, clamped at −120 mV; for α4β3δ EMAX: peak current after GABA+compound divided by peak current after GABA alone
Procedure: (§1) The SyncroPatch 384PE (Nanion, Germany) automated patch clamp platform was used to obtain recordings from human embryonic kidney cells stably expressing human GABAA receptors composed of the α1β2γ2 and α4β3δ subunits. Cells were bathed in an extracellular solution containing: 140 mM NaCl, 4 mM KCl, 2 mM CaCl2), 1 mM MgCl2, 10 mM HEPES, 5 mM glucose and 0.1% DMSO. Solution was maintained at pH 7.4 with NaOH and 300 mOsm/L. Chips with multi-hole (4×) medium resistance (2-3M) are used for the recombinant cell line experiments. Once harvested, cells are stored in extracellular solution set to 10° C. in the cell hotel with a minimum shaking speed of 200 rpm before addition to the chip at the beginning of each experiment. Whole cell patch clamp recordings were made using an intracellular solution containing: 90 mM KCl, 50 mM KF, 1.5 mM MgCl2, 11.1 mM EGTA and 10 mM HEPES, 2 mM NaATP, maintained at pH 7.2 with KOH. Currents are leak corrected (using P/2 leak correction protocol) and sampled at 5 kHz. Cells were clamped at −120 mV. After establishing a stable baseline, a submaximal concentration of GABA (3-5 μM for cells expressing α1β2γ2 and 10 μM for cells expressing […]) was applied at a rate of 10 μl/second, immediately followed by application of GABA+compound (10 μl/second) at a single concentration of compound per cell. Compounds were tested at six concentrations (0.029, 0.12, 0.47, 1.88, 7.5, and 30 μM) in n=8-12 cells per concentration. Compound effect was determined by dividing peak current amplitude after GABA+compound by peak current amplitude after GABA alone. EC50 and Emax values were determined from average values for each concentration.

[2] = molecular target: human GABAA receptors composed of the α1β2γ2 subunits (Homo sapiens (Human), UniProt P14867+P18507+P47870); assay: α1β2γ2 SyncroPatch automated patch clamp assay; format: cell-based; conditions: for EC50: HEK cells, potentiation of submaximal GABA current, clamped at −120 mV; for α1β2γ2 EMAX: peak current after GABA+compound divided by peak current after GABA alone
Procedure: as §1

[3] = molecular target: [35S]-TBPS binding, rat brain cortical membranes; assay: Steroid inhibition of [35S]-TBPS binding; conditions: 3 nM [35S]-TBPS, in the presence of 5 mM GABA
Procedure, shortened: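 Rat cortical P2 membranes incubated 90 min at room temperature with 3 nM [35S]-TBPS, […] and test compound (0.5% DMSO final) in NaCl/Na–K phosphate pH 7.4; nonspecific binding with […]. Filter-bound radioactivity counted; IC50 and Imax from nonlinear fits, mean ± SEM.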

Chain of human GABAA receptors composed of the α4β3δ subunits (P48169 36-554 limits assumed): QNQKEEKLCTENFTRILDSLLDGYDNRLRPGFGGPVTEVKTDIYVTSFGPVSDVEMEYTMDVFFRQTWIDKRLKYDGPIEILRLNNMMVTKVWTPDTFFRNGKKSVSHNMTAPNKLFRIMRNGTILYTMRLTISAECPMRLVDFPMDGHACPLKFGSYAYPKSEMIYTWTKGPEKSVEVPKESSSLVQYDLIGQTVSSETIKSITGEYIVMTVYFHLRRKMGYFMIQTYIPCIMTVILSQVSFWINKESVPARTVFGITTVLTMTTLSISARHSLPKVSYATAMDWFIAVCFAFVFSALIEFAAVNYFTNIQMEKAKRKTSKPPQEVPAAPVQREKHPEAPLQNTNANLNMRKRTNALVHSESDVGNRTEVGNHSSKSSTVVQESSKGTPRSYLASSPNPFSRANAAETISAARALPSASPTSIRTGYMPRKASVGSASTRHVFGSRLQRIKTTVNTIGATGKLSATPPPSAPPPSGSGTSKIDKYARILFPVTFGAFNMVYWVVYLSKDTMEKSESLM
Chain of human GABAA receptors composed of the α4β3δ subunits (P28472 26-473 limits assumed): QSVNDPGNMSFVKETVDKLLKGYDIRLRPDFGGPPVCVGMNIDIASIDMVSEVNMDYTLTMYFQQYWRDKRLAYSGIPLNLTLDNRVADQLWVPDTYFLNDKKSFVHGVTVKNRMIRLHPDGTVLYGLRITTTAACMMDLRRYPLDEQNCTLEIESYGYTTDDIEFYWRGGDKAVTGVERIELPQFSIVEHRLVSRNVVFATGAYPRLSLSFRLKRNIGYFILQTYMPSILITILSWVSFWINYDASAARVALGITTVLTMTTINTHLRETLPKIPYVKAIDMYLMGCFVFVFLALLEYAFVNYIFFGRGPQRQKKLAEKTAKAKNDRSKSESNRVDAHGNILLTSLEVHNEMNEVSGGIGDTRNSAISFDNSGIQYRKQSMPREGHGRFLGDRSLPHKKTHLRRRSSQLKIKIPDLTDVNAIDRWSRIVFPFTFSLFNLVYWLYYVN
Chain of human GABAA receptors composed of the α4β3δ subunits (O14764 17-452 limits assumed): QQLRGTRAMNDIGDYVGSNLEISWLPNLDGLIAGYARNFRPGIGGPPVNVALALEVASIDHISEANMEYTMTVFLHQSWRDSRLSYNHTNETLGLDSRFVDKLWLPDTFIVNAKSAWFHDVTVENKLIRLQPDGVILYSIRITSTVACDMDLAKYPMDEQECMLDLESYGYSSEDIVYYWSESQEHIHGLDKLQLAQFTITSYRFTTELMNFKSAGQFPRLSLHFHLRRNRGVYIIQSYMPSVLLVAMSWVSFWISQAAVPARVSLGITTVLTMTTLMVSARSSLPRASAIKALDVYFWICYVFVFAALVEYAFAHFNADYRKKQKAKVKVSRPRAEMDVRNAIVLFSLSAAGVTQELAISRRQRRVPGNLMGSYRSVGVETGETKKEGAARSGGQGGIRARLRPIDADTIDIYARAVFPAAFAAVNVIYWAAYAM
Chain of human GABAA receptors composed of the α1β2γ2 subunits (P14867 28-456 limits assumed): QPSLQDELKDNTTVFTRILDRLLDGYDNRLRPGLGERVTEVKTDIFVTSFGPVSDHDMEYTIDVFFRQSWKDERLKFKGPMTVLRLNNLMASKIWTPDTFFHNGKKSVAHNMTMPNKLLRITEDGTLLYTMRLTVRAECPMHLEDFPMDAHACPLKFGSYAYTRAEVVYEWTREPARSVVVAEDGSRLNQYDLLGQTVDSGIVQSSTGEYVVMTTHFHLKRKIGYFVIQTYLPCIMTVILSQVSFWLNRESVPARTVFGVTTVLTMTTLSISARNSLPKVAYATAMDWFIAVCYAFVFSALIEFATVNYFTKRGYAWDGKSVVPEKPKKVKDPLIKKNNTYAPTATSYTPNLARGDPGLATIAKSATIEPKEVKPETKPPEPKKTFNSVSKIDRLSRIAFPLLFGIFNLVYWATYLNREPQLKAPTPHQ
Chain of human GABAA receptors composed of the α1β2γ2 subunits (P47870 25-512 limits assumed): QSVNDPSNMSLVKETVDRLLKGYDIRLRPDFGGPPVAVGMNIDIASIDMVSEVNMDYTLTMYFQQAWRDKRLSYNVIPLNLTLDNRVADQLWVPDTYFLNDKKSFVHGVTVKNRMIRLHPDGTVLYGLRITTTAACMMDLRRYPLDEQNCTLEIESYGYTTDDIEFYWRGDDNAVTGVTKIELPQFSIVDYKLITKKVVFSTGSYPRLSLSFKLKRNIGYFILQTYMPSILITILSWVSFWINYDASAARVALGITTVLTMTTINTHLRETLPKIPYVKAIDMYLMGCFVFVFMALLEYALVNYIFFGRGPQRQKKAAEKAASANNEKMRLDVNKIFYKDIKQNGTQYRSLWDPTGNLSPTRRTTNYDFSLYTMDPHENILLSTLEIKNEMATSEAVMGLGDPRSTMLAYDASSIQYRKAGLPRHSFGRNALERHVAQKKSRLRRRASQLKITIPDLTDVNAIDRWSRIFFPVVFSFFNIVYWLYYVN
Chain of human GABAA receptors composed of the α1β2γ2 subunits (P18507 40-475 limits assumed): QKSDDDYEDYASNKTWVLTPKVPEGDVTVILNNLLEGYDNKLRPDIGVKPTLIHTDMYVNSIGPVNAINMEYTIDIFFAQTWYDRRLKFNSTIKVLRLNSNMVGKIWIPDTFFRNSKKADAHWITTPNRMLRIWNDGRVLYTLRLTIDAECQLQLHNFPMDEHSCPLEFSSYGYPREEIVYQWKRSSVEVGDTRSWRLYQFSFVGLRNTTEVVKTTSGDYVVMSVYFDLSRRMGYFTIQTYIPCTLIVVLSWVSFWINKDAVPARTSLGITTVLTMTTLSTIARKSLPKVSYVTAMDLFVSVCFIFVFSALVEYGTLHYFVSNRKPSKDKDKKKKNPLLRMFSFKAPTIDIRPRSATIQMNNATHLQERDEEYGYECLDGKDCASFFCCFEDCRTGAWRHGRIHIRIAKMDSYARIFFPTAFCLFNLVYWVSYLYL

SMILES	EC50 [1]	α4β3δ EMAX [1]	EC50 [2]	α1β2γ2 EMAX [2]	IC50 [3]
CCOC[C@@]1(O)CC[C@H]2[C@H](CC[C@@H]3[C@@H]2CC[C@]2(C)[C@@H]([C@H](C)Cn4ccc(C#N)n4)CC[C@@H]32)C1 [Example 287, 1-((S)-2-((3R,5R,8R,9R,10S,13S,14S,17R)-3-(ethoxymethyl)-3-hydroxy-13-methylhexadecahydro-1H-cyclopenta[a]phenanthren-17-yl)propyl)-1H-pyrazole-3-carbonitrile]	0.2 to 1 µM	A (A indicates an Emax response <30)	0.2 to 1 µM	B (B indicates an Emax response 8 to <10)	< 0.1 µM
CCC[C@@]1(O)CC[C@H]2[C@H](CC[C@@H]3[C@@H]2CC[C@]2(C)[C@@H]([C@H](C)Cn4nnc(C)n4)CC[C@@H]32)C1 [Example 293, (3R,5R,8R,9R,10S,13S,14S,17R)-13-methyl-17-((S)-1-(5-methyl-2H-tetrazol-2-yl)propan-2-yl)-3-propylhexadecahydro-1H-cyclopenta[a]phenanthren-3-ol]	0.2 to 1 µM	A (A indicates an Emax response <30)	≥ 1 µM	A (A indicates an Emax response <8)	< 0.1 µM
CCC[C@@]1(O)CC[C@H]2[C@H](CC[C@@H]3[C@@H]2CC[C@]2(C)[C@@H]([C@@H](C)Cn4nnc(C)n4)CC[C@@H]32)C1 [Example 294, (3R,5R,8R,9R,10S,13S,14S,17R)-13-methyl-17-((R)-1-(5-methyl-2H-tetrazol-2-yl)propan-2-yl)-3-propylhexadecahydro-1H-cyclopenta[a]phenanthren-3-ol]	0.2 to 1 µM	B (B indicates an Emax response 30 to <45)	0.2 to 1 µM	C (C indicates an Emax response ≥10)	< 0.1 µM
CC(C)C[C@@]1(O)CC[C@H]2[C@H](CC[C@@H]3[C@@H]2CC[C@]2(C)[C@@H]([C@@H](C)Cn4cc(C#N)cn4)CC[C@@H]32)C1 [Example 299, 1-((R)-2-((3S,5R,8R,9R,10S,13S,14S,17R)-3-hydroxy-3-isobutyl-13-methylhexadecahydro-1H-cyclopenta[a]phenanthren-17-yl)propyl)-1H-pyrazole-4-carbonitrile]	< 0.2 µM	B (B indicates an Emax response 30 to <45)	≥ 1 µM	–	< 0.1 µM
C[C@@H](Cn1cc(C#N)cn1)[C@H]1CC[C@H]2[C@@H]3CC[C@@H]4C[C@@](O)(CC5CC5)CC[C@@H]4[C@H]3CC[C@]12C [Example 303, 1-((R)-2-((3S,5R,8R,9R,10S,13S,14S,17R)-3-(cyclopropylmethyl)-3-hydroxy-13-methylhexadecahydro-1H-cyclopenta[a]phenanthren-17-yl)propyl)-1H-pyrazole-4-carbonitrile]	< 0.2 µM	B (B indicates an Emax response 30 to <45)	< 0.2 µM	C (C indicates an Emax response ≥10)	< 0.1 µM
CCCC[C@@]1(O)CC[C@H]2[C@H](CC[C@@H]3[C@@H]2CC[C@]2(C)[C@@H]([C@@H](C)Cn4cc(C#N)cn4)CC[C@@H]32)C1 [Example 311, 1-((R)-2-((3R,5R,8R,9R,10S,13S,14S,17R)-3-butyl-3-hydroxy-13-methylhexadecahydro-1H-cyclopenta[a]phenanthren-17-yl)propyl)-1H-pyrazole-4-carbonitrile]	0.2 to 1 µM	B (B indicates an Emax response 30 to <45)	< 0.2 µM	C (C indicates an Emax response ≥10)	< 0.1 µM
CCC[C@@]1(O)CC[C@@]2(COC)[C@H](CC[C@H]3[C@@H]4CC[C@H]([C@H](C)Cn5nnc(C)n5)[C@@]4(C)CC[C@@H]32)C1 [Example 320, (3R,5R,8S,9S,10R,13S,14S,17R)-10-(methoxymethyl)-13-methyl-17-((S)-1-(5-methyl-2H-tetrazol-2-yl)propan-2-yl)-3-propylhexadecahydro-1H-cyclopenta[a]phenanthren-3-ol]	0.2 to 1 µM	C (C indicates an Emax response ≥45)	0.2 to 1 µM	B (B indicates an Emax response 8 to <10)	< 0.1 µM
CCC[C@@]1(O)CC[C@H]2[C@H](CC[C@@H]3[C@@H]2CC[C@]2(C)[C@@H]([C@H](C)Cn4nnnc4C)CC[C@@H]32)C1 [Example 323, (3R,5R,8R,9R,10S,13S,14S,17R)-13-methyl-17-(1-(5-methyl-1H-tetrazol-1-yl)propan-2-yl)-3-propylhexadecahydro-1H-cyclopenta[a]phenanthren-3-ol]	0.2 to 1 µM	B (B indicates an Emax response 30 to <45)	< 0.2 µM	C (C indicates an Emax response ≥10)	< 0.1 µM
CCC[C@@]1(O)CC[C@H]2[C@@H](CC[C@@H]3[C@@H]2CC[C@]2(C)[C@@H]([C@@H](C)Cn4nnnc4C)CC[C@@H]32)C1 [Example 332, (3R,5S,8R,9R,10S,13S,14S,17R)-13-methyl-17-((R)-1-(5-methyl-1H-tetrazol-1-yl)propan-2-yl)-3-propylhexadecahydro-1H-cyclopenta[a]phenanthren-3-ol]	0.2 to 1 µM	A (A indicates an Emax response <30)	< 0.2 µM	A (A indicates an Emax response <8)	0.1 to 1 µM
C[C@@H](Cn1cc(C#N)cn1)[C@H]1CC[C@H]2[C@@H]3CC[C@@H]4C[C@@](O)(C5CC5)CC[C@@H]4[C@H]3CC[C@]12C [Example 341, 1-((R)-2-((3R,5R,8R,9R,10S,13S,14S,17R)-3-cyclopropyl-3-hydroxy-13-methylhexadecahydro-1H-cyclopenta[a]phenanthren-17-yl)propyl)-1H-pyrazole-4-carbonitrile]	< 0.2 µM	A (A indicates an Emax response <30)	< 0.2 µM	A (A indicates an Emax response <8)	< 0.1 µM
CCOC[C@@]1(O)CC[C@H]2[C@H](CC[C@@H]3[C@@H]2CC[C@]2(C)[C@@H]([C@H](Cn4cc(C#N)cn4)C(F)(F)F)CC[C@@H]32)C1 [Example 357, 1-((R)-2-((3R,5R,8R,9R,10S,13S,14S,17R)-3-(ethoxymethyl)-3-hydroxy-13-methylhexadecahydro-1H-cyclopenta[a]phenanthren-17-yl)-3,3,3-trifluoropropyl)-1H-pyrazole-4-carbonitrile]	0.2 to 1 µM	B (B indicates an Emax response 30 to <45)	0.2 to 1 µM	B (B indicates an Emax response 8 to <10)	0.1 to 1 µM
CCOC[C@@]1(O)CC[C@H]2[C@H](CC[C@@H]3[C@@H]2CC[C@]2(C)[C@@H]([C@H](Cn4nnc(C)n4)C(F)(F)F)CC[C@@H]32)C1 [Example 358, (3R,5R,8R,9R,10S,13S,14S,17R)-3-(ethoxymethyl)-13-methyl-17-((R)-1,1,1-trifluoro-3-(5-methyl-2H-tetrazol-2-yl)propan-2-yl)hexadecahydro-1H-cyclopenta[a]phenanthren-3-ol]	≥ 1 µM	B (B indicates an Emax response 30 to <45)	≥ 1 µM	A (A indicates an Emax response <8)	0.1 to 1 µM
CCC[C@@]1(O)CC[C@H]2[C@H](CC[C@@H]3[C@@H]2CC[C@]2(C)[C@@H]([C@@H](C)Cc4ccc(C#N)nc4)CC[C@@H]32)C1 [Example 401, 5-((S)-2-((3R,5R,8R,9R,10S,13R,14S,17R)-3-hydroxy-13-methyl-3-propylhexadecahydro-1H-cyclopenta[a]phenanthren-17-yl)propyl)picolinonitrile]	≥ 1 µM	A (A indicates an Emax response <30)	≥ 1 µM	C (C indicates an Emax response ≥10)	< 0.1 µM
